Reference: PubChem BioAssay AID330 (DTP/NCI, 2004)
“And” between values parts separate entries of the source, which are not always exact repeats. Equal values may be shown once. Toxic doses and inconclusive results are not listed.

Tested on: P388 leukemia ip, CD2F1 mice, survival T/C
Test: NCI In Vivo Anticancer Drug Screen. Data for tumor model P388 Leukemia (intraperitoneal) in CD2F1 (CDF1) mice
Details: endpoint: median survival time, higher = longer survival
Summary of the method: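 Mice carrying the transplanted tumor received test compound or vehicle. Survival was recorded in each group, and the value is the treated-group measurement divided by that of the vehicle-treated control group.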

[1] = dose: 12.5 mg/kg/injection, schedule: Q01DX009 (ip), vehicle: saline
[2] = dose: 60.0 mg/kg/injection, schedule: Q01DX005 (ip), vehicle: saline with Tween-80
[3] = dose: 60.0 mg/kg/injection, schedule: Q01DX005 (ip), vehicle: Klucel (hydroxypropylcellulose) (HPC)
[4] = dose: 120.0 mg/kg/injection, schedule: Q01DX005 (ip), vehicle: Klucel (hydroxypropylcellulose) (HPC)
[5] = dose: 120.0 mg/kg/injection, schedule: Q01DX005 (ip), vehicle: saline with Tween-80
[6] = dose: 240.0 mg/kg/injection, schedule: Q01DX005 (ip), vehicle: saline with Tween-80
[7] = dose: 6.25 mg/kg/injection, schedule: Q01DX009 (ip), vehicle: saline with Tween-80
[8] = dose: 12.5 mg/kg/injection, schedule: Q01DX009 (ip), vehicle: saline with Tween-80
[9] = dose: 25.0 mg/kg/injection, schedule: Q01DX009 (ip), vehicle: saline with Tween-80
[10] = dose: 50.0 mg/kg/injection, schedule: Q01DX009 (ip), vehicle: saline with Tween-80
[11] = dose: 100.0 mg/kg/injection, schedule: Q01DX009 (ip), vehicle: saline with Tween-80
[12] = dose: 200.0 mg/kg/injection, schedule: Q01DX009 (ip), vehicle: saline with Tween-80
[13] = dose: 50.0 mg/kg/injection, schedule: Q01DX005 (ip), vehicle: saline
[14] = dose: 100.0 mg/kg/injection, schedule: Q01DX005 (ip), vehicle: saline
[15] = dose: 200.0 mg/kg/injection, schedule: Q01DX005 (ip), vehicle: saline
[16] = dose: 240.0 mg/kg/injection, schedule: Q01DX005 (ip), vehicle: Klucel (hydroxypropylcellulose) (HPC)
[17] = dose: 100.0 mg/kg/injection, schedule: Q01DX001 (ip), vehicle: Klucel (hydroxypropylcellulose) (HPC)
[18] = dose: 200.0 mg/kg/injection, schedule: Q01DX001 (ip), vehicle: Klucel (hydroxypropylcellulose) (HPC)
[19] = dose: 400.0 mg/kg/injection, schedule: Q01DX001 (ip), vehicle: Klucel (hydroxypropylcellulose) (HPC)

For `CCCCCCCCCC[N+]1([O-])CCCCCC1`, the T/C [1] was 100 % of control, the T/C (dose: 25.0 mg/kg/injection, schedule: Q01DX009 (ip), vehicle: saline) was 106 % of control and the T/C (dose: 50.0 mg/kg/injection, schedule: Q01DX009 (ip), vehicle: saline) was 94 % of control.

For `CCC(=O)c1c(O)c2ccccc2oc1=O`, the T/C (dose: 15.0 mg/kg/injection, schedule: Q01DX005 (ip), vehicle: saline with Tween-80) was 104 % of control, the T/C (dose: 30.0 mg/kg/injection, schedule: Q01DX005 (ip), vehicle: saline with Tween-80) was 107 % of control and the T/C [2] was 104 % of control.

For `CC(C)(C)N(Cc1ccccc1)C(O)Cc1c(-c2ccccc2)c(-c2ccccc2)c2n1CCC2` (centres undefined), the T/C [3] was 89 % of control and the T/C [4] was 88 % of control.

In the case of `COC(=O)c1cc(-c2ccc(F)cc2)[nH]c(=O)c1C#N`, the T/C [2] is reported as 97 % of control, the T/C [5] is reported as 106 % of control and the T/C [6] is reported as 104 % of control.

In the case of `OCCN1CCN(CC/C=C2\c3ccccc3COc3ccc(Cl)cc32)CC1`, the T/C (dose: 6.25 mg/kg/injection, schedule: Q04DX003 (ip), vehicle: saline) is reported as 100 % of control, the T/C (dose: 12.5 mg/kg/injection, schedule: Q04DX003 (ip), vehicle: saline) is reported as 114 % of control and 117 % of control and the T/C (dose: 25.0 mg/kg/injection, schedule: Q04DX003 (ip), vehicle: saline) is reported as 110 % of control. The T/C (dose: 50.0 mg/kg/injection, schedule: Q04DX003 (ip), vehicle: saline) was 110 % of control and the T/C (dose: 100.0 mg/kg/injection, schedule: Q04DX003 (ip), vehicle: saline) was 97 % of control.

For `O=CC(NC(=O)CCCc1ccc(N(CCCl)CCCl)cc1)C(O)C(O)C(O)CO` (centres undefined), the T/C (dose: 12.5 mg/kg/injection, schedule: Q01DX009 (ip), vehicle: Klucel (hydroxypropylcellulose) (HPC)) was 204 % of control and 215 % of control, the T/C (dose: 25.0 mg/kg/injection, schedule: Q01DX009 (ip), vehicle: Klucel (hydroxypropylcellulose) (HPC)) was 211 % of control and 227 % of control and the T/C (dose: 50.0 mg/kg/injection, schedule: Q01DX009 (ip), vehicle: Klucel (hydroxypropylcellulose) (HPC)) was 105 % of control and 86 % of control and 89 % of control.

In the case of `CCOC(=O)c1ccc(NC(=O)O/N=C/c2ccncc2)cc1`, the T/C [7] is reported as 88 % of control, the T/C [8] is reported as 112 % of control and the T/C [9] is reported as 88 % of control. The T/C [10] was 93 % of control, the T/C [11] was 94 % of control and the T/C [12] was 90 % of control.

With `CN(C)CCNC1c2ccccc2-c2ccccc21` the T/C [13] was 99 % of control, the T/C [14] was 98 % of control and the T/C [15] was 100 % of control.

With `CN1CCC/C1=N\S(=O)(=O)/N=C1\CCCN1C` the T/C [13] was 92 % of control, the T/C [14] was 100 % of control and the T/C [15] was 99 % of control.

For `O=C(Nc1cccc(NC(=O)Nc2cc(C(F)(F)F)ccc2Cl)c1)Nc1cc(C(F)(F)F)ccc1Cl`, the T/C [3] was 89 % of control, the T/C [4] was 91 % of control and the T/C [16] was 100 % of control.

In the case of `[NH-]C(CCC(N)=O)C(=O)O.[NH-]C(CCCCN)C(=O)O.[Zn+2]` (centres undefined), the T/C (dose: 12.5 mg/kg/injection, schedule: Q01DX005 (ip), vehicle: saline) is reported as 102 % of control, the T/C (dose: 25.0 mg/kg/injection, schedule: Q01DX005 (ip), vehicle: saline) is reported as 105 % of control and the T/C [13] is reported as 110 % of control.

In the case of `CC(N)C(=O)NC(Cc1ccccc1)C(=O)O` (centres undefined), the T/C [13] is reported as 101 % of control, the T/C [14] is reported as 105 % of control and the T/C [15] is reported as 105 % of control.

With `COC(=O)C(=O)C1CCc2c(C(=O)OC)nc3nnc(N)n3c21` (centres undefined) the T/C [2] was 94 % of control, the T/C [5] was 99 % of control and the T/C [6] was 87 % of control.

In the case of `O=C(c1cccs1)C1SC(C(=O)c2cccs2)C2(O)c3cccc4cccc(c34)C12O` (centres undefined), the T/C (dose: 7.5 mg/kg/injection, schedule: Q01DX009 (ip), vehicle: Klucel (hydroxypropylcellulose) (HPC)) is reported as 100 % of control.

With `Cc1ccc(N=Nc2c(O)n(-c3ccc(C)cc3)c(=S)n(-c3ccc(Br)cc3)c2=O)cc1` the T/C (dose: 100.0 mg/kg/injection, schedule: Q04DX002 (ip), vehicle: saline with Tween-80) was 99 % of control, the T/C (dose: 200.0 mg/kg/injection, schedule: Q04DX002 (ip), vehicle: saline with Tween-80) was 102 % of control and the T/C (dose: 400.0 mg/kg/injection, schedule: Q04DX002 (ip), vehicle: saline with Tween-80) was 105 % of control.

With `[N-]=[N+]=NC(c1ccccc1)n1nnnc1-c1ccccc1` (centres undefined) the T/C [17] was 101 % of control and 88 % of control, the T/C [18] was 102 % of control and 95 % of control and the T/C [19] was 98 % of control and 120 % of control.

For `Cc1ccn2cc(CC(=O)O)nc2c1`, the T/C [17] was 104 % of control, the T/C [18] was 100 % of control and the T/C [19] was 96 % of control.

In the case of `C=Cc1cncc2c1CCOC2=O`, the T/C (dose: 3.75 mg/kg/injection, schedule: Q01DX005 (ip), vehicle: Klucel (hydroxypropylcellulose) (HPC)) is reported as 86 % of control, the T/C (dose: 7.5 mg/kg/injection, schedule: Q01DX005 (ip), vehicle: Klucel (hydroxypropylcellulose) (HPC)) is reported as 93 % of control and the T/C (dose: 30.0 mg/kg/injection, schedule: Q01DX005 (ip), vehicle: Klucel (hydroxypropylcellulose) (HPC)) is reported as 86 % of control.

In the case of `CN(C)c1ccc2c3c(c(=O)oc2c1)CCC3`, the T/C (dose: 3.12 mg/kg/injection, schedule: Q01DX009 (ip), vehicle: saline with Tween-80) is reported as 102 % of control, the T/C [7] is reported as 112 % of control and the T/C [8] is reported as 114 % of control and 115 % of control. The T/C [9] was 107 % of control, the T/C [10] was 104 % of control and 111 % of control and the T/C [12] was 94 % of control.

`CO[C@@H]1[C@H](O)CC[C@]2(CO2)[C@H]1[C@@]1(C)O[C@@H]1CC=C(C)C` was tested, and the T/C (dose: 3.13 mg/kg/injection, schedule: Q01DX009 (ip), vehicle: saline with Tween-80) was 99 % of control and 120 % of control, the T/C [7] was 99 % of control and 116 % of control and the T/C [8] was 99 % of control and 106 % of control. The T/C [9] was 108 % of control and 120 % of control and the T/C (dose: 33.3 mg/kg/injection, schedule: Q01DX009 (ip), vehicle: saline with Tween-80) was 99 % of control.

In the case of `CCCOC(=O)c1ccc(NC(=O)Nc2ccc(C(=O)OCC)cc2)cc1`, the T/C [3] is reported as 87 % of control, the T/C [4] is reported as 90 % of control and the T/C [16] is reported as 88 % of control.

`N#CN=CN1CC2CCC(CC2)C1` was tested, and the T/C (dose: 3.13 mg/kg/injection, schedule: Q01DX009 (ip), vehicle: saline) was 98 % of control, the T/C (dose: 6.25 mg/kg/injection, schedule: Q01DX009 (ip), vehicle: saline) was 102 % of control and the T/C [1] was 92 % of control.

`COc1cc(/C=N/NC(=O)CNC(=O)c2ccccc2)ccc1O` was tested, and the T/C [2] was 93 % of control, the T/C [5] was 95 % of control and the T/C [6] was 94 % of control.

For `CN(C)c1ccc(C(=N)c2ccc(N(C)C)cc2)cc1` (tested in a mixture with another compound), the T/C [9] was 100 % of control, the T/C [10] was 95 % of control and the T/C [11] was 100 % of control.
